Assay results published in patent publication US20240180881A1, “METHODS FOR DECREASING RESISTANCE TO CHEMOTHERAPY” (National Institute of Immunology, priority 2022, published 2024).

Experiments:
[1] = target: T1, BLM-RAD54 interaction (BLM F2 and N-RAD54 F1) (Homo sapiens, UniProt Q92698); experiment: Renilla luciferase-based protein complementation assay (PCA); assay type: cell-based; conditions: disruption of BLM F2 / N-RAD54 F1 interaction, HEK293T cells, 1 nM to 100 μM; read-out: EC50
T1 construct: expressed in transfected cells; host or cells: HEK293T
T1 sequence (Q92698 1-212): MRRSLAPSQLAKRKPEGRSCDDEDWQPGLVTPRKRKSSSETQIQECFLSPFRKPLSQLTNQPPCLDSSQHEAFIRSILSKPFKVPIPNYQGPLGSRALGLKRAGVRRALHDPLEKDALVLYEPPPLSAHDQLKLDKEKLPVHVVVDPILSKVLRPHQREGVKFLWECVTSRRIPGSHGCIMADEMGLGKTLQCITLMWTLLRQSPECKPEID
Method: Specifically, N-RAD54-F1, C-RAD54-F1, BLM-F1 and BLM-F2 were transfected in HEK293T. Forty-eight hours post-transfection, Renilla luciferase-based PCA were carried out with the indicated combination of the expressed proteins. The experiment was repeated three times. Mean±S.D.
Using the Renilla luciferase-based protein complementation assay described earlier, 1280 FDA/EMA approved small molecules present in Prestwick chemical library were screened for their ability to disrupt BLM-RAD54 interaction. Each of the small molecules was incubated with HEK293T cells expressing BLM-F2 and N-RAD54-F1. Compared to cells expressing only BLM-F2 and N-RAD54-F1, the decrease in Renilla luciferase intensity in presence of each small molecule was monitored. Percentage disruption of the interaction between BLM F2 and N-RAD54 F1 was plotted in form of heatmap. The disruption of the BLM-RAD54 interaction was determined by a decrease in the Renilla luciferase activity as compared to control untreated cells.
The percentage disruption of the interaction between BLM F2 and N-RAD54 F1 was plotted as a non-linear regression line. The data was from three independent experiments.
Renilla Luciferase (Rlu) based Protein complementation assay was carried out as described in (Stefan et al., 2007). For preliminary screening of the Prestwick Chemical Library (containing 1280 FDA/EMA approved small molecules), HEK293T cells were seeded in the 6-well plates a day prior to the transfection. Next day the cells were transfected by 2 μg each of pcDNA3.1 N-RAD54 F1, pcDNA3.1 C-RAD54 F1, pcDNA3.1 BLM F1, pcDNA3.1 BLM F2 plasmids (alone or in different combinations) using Lipofectamine 2000 (according to the manufacturer's protocol). 36 hours post-transfection, approximately […] cells were seeded in a 96-well plate and incubated at 37° C. for 2 hour with or without 10 μM of the 1280 small molecules present in the library. 10 μM of Coenleterazine h was added into each well and Rluc activity was monitored for the first 10 seconds in Varioskan Microplate Reader (Thermo Fisher Scientific). The validation screen was performed with 17 small molecules at 100 μM, 10 μM, 1 μM, 100 nM, 10 nM and 1 nM concentrations. The percentage reduction in the protein-protein interaction was then calculated as compared to the control wells (without any small molecule).

[2] = test system: homologous recombination in HCT116 IC60 CPTR cells; experiment: HR assay; assay type: cell-based; conditions: HR substrate transfected for 72 hours
Method: Concentrations of CPT used: 0.140 nM, 20 nM, 50 nM, 1000 nM. Concentration of 1-OHP: 0.14 μM, 2 μM, 4 μM, 6 μM, 8 μM. Concentrations of CDDP used: 0.140 μM, 2 μM, 5 μM, 10 μM. The percentage of viable cells were determined by MTT assays (FIG. 12A-12C). The data in FIG. 12A and FIG. 12C is from three independent experiments and the data in FIG. 12B is from nine independent experiments. […] The levels of MRP2, MRP3, MRP5, MXR were quantitated from three independent experiments. […] Specifically, HCT116 IC60 CPTR cells were transfected with the HR substrate for 72 hours and the levels of HR was determined (FIG. 6A). The data is from three independent experiments. […] The number of soft agar colonies in each condition were counted. The data is from three independent experiments.
For HR assay, 10 μg of the HR plasmid (Seluanov et al., 2010) was digested with I-SceI, purified and eluted into 20 μl of 10 mM TrisHCl pH 8.0. 5 μg of the linearized reporter cassette along with 100 ng of tdTomato-N1 plasmid were transfected in an exponentially growing 10 cm dish of cells using FuGENE® HD Transfection Reagent. After 3 days of transfection, the cells were harvested. The GFP positive and TdRed positive cells were analysed by FACS. SCE assays were carried out as described earlier (Chabosseau et al., 2011).

HT-29 OHP(R) cells = experiment: Xenograft, HT-29 OHP(R); assay type: in vivo, NSG mice; conditions: for tumour volume, chemoresistance: CPT + compound
Method: Xenografts assays were carried out in NSG mice using HT-29 OHP(R) cells.
RNA (FIG. 16D) or protein (FIG. 16E) levels of the indicated MDR genes were determined by RT-qPCR or immunoblotting with the indicated antibodies.

HCT116 IC60 CPTR tumors = experiment: Xenograft model, camptothecin resistant cells; conditions: for tumor growth: CPT 1.25 mg/kg + compound 5 mg/kg intraperitoneally every 3 days, compared to CPT alone; for apoptosis in tumors, TUNEL positivity: dual treatment with CPT; for cell proliferation in tumors, Ki67 and PCNA levels: dual treatment with CPT/1-OHP

SMILES	EC50 [1]	levels of HR [2]	tumour volume, chemoresistance (HT-29 OHP(R) cells)	tumor growth (HCT116 IC60 CPTR tumors)	apoptosis in tumors, TUNEL positivity (HCT116 IC60 CPTR tumors)	cell proliferation in tumors, Ki67 and PCNA levels (HCT116 IC60 CPTR tumors)	RNA and protein levels of the MDR genes in tumours (HT-29 OHP(R) cells; without or with compound treatment)	RNA and protein levels of multiple MDR genes (including MRP2) in tumors (HCT116 IC60 CPTR tumors; co-treated with CPT 1.25 mg/kg and compound 5 mg/kg, end point)
OCCN(CCO)c1nc(N2CCCCC2)c2nc(N(CCO)CCO)nc(N3CCCCC3)c2n1 [C7, Dipyridamole]	6.16 ± 0.297 nM	decreased the levels of the HR	reverses chemoresistance	inhibited the tumor growth	increased apoptosis	Decreased cell proliferation	–	–
CN1CCN(C2=Nc3ccccc3Oc3ccc(Cl)cc32)CC1.O=C(O)CCC(=O)O [C17, Loxapine succinate]	22.9 ± 4.25 nM	decreased the levels of the HR	reverses chemoresistance	inhibited the tumor growth	increased apoptosis	Decreased cell proliferation	decreased	very significantly decreased
CC(=O)Nc1nnc(S(N)(=O)=O)s1 [C3, Acetazolamide]	4.2 ± 0.198 nM	decreased the levels of the HR	reverses chemoresistance	inhibited the tumor growth	increased apoptosis	Decreased cell proliferation	–	–
